Source: patent publication US10004701B2, “Methods and compositions for treating infection” (UNIVERSITY OF ROCHESTER, priority 2012, dated 2018)
Structures can show the parent of a compound that is named as a salt. Where two headings read alike, the source gives them in different places.

Assays:
Assay in all cases: AK assay 384-well format, Prestwick library screening
K. pneumoniae = type: cell-based, Klebsiella pneumoniae; details: Klebsiella pneumoniae, 3 h, 50 μM final drug concentration
[1] = tested on: A. baumannii strain 98-37-09; type: cell-based, Acinetobacter baumannii; details: Acinetobacter baumannii, 983709, 3 h, 50 μM final drug concentration
E. faecium = type: cell-based, Enterococcus faecium; details: Enterococcus faecium, 3 h, 50 μM final drug concentration
E. cloacae = type: cell-based, Enterobacter cloacae; details: Enterobacter cloacae, 3 h, 50 μM final drug concentration
P. aeruginosa = type: cell-based, Pseudomonas aeruginosa; details: Pseudomonas aeruginosa, 3 h, 50 μM final drug concentration
[2] = tested on: S. aureus strain USA300-0114; type: cell-based, Staphylococcus aureus; details: Staphylococcus aureus, USA300, 3 h, 50 μM final drug concentration
E. coli = type: cell-based, Escherichia coli; details: Escherichia coli, 3 h, 50 μM final drug concentration
[3] = planktonic K. pneumoniae, 384-well, […], read-out: AK-based Prestwick Library Screening Results: K. pneumoniae (increase in extracellular AK activity)
[4] = planktonic A. baumannii, 384-well, […], read-out: AK-based Prestwick Library Screening Results: A. baumannii (increase in extracellular AK activity)
[5] = planktonic E. faecium, 384-well, […], read-out: AK-based Prestwick Library Screening Results: E. faecium (increase in extracellular AK activity)
[6] = planktonic E. cloacae, 384-well, […], read-out: AK-based Prestwick Library Screening Results: E. cloacae (increase in extracellular AK activity)
[7] = planktonic P. aeruginosa, 384-well, […], read-out: AK-based Prestwick Library Screening Results: P. aeruginosa (increase in extracellular AK activity)
[8] = planktonic S. aureus, 384-well, […], read-out: AK-based Prestwick Library Screening Results: S. aureus (increase in extracellular AK activity)
[9] = planktonic E. coli, 384-well, […], read-out: AK-based Prestwick Library Screening Results: E. coli (increase in extracellular AK activity)
[10] = 384-well format, cutoff for positive-scoring molecules 3-fold increase, read-out: AK-based Prestwick Library Screening Results, K. pneumoniae (increase in extracellular AK activity)
[11] = 384-well format, cutoff for positive-scoring molecules 3-fold increase, read-out: AK-based Prestwick Library Screening Results, A. baumannii (increase in extracellular AK activity)
[12] = 384-well format, cutoff for positive-scoring molecules 3-fold increase, read-out: AK-based Prestwick Library Screening Results, E. faecium (increase in extracellular AK activity)
[13] = 384-well format, cutoff for positive-scoring molecules 3-fold increase, read-out: AK-based Prestwick Library Screening Results, E. cloacae (increase in extracellular AK activity)
[14] = 384-well format, cutoff for positive-scoring molecules 3-fold increase, read-out: AK-based Prestwick Library Screening Results, P. aeruginosa (increase in extracellular AK activity)
[15] = 384-well format, cutoff for positive-scoring molecules 3-fold increase, read-out: AK-based Prestwick Library Screening Results, S. aureus (increase in extracellular AK activity)
[16] = 384-well format, cutoff for positive-scoring molecules 3-fold increase, read-out: AK-based Prestwick Library Screening Results, E. coli (increase in extracellular AK activity)
[17] = planktonic, cutoff for positive 3-fold increase, read-out: AK-based Prestwick Library Screening Results, K. pneumoniae (fold increase in extracellular AK activity)
[18] = planktonic, cutoff for positive 3-fold increase, read-out: AK-based Prestwick Library Screening Results, A. baumannii (fold increase in extracellular AK activity)
[19] = planktonic, cutoff for positive 3-fold increase, read-out: AK-based Prestwick Library Screening Results, E. faecium (fold increase in extracellular AK activity)
[20] = planktonic, cutoff for positive 3-fold increase, read-out: AK-based Prestwick Library Screening Results, E. cloacae (fold increase in extracellular AK activity)
[21] = planktonic, cutoff for positive 3-fold increase, read-out: AK-based Prestwick Library Screening Results, P. aeruginosa (fold increase in extracellular AK activity)
[22] = planktonic, cutoff for positive 3-fold increase, read-out: AK-based Prestwick Library Screening Results, S. aureus (fold increase in extracellular AK activity)
[23] = planktonic, cutoff for positive 3-fold increase, read-out: AK-based Prestwick Library Screening Results, E. coli (fold increase in extracellular AK activity)

C1CCC(C(CC2CCCCN2)C2CCCCC2)CC1 (centres unmarked) [Perhexiline maleate]
fold induction at 50 µM (K. pneumoniae; [3]): 1.6 | fold induction at 50 µM [1, 4]: 3.4 | fold induction at 50 µM (E. faecium; [5]): 1.2 | fold induction at 50 µM (E. cloacae; [6]): 1.5 | fold induction at 50 µM (P. aeruginosa; [7]): 1.4 | fold induction at 50 µM [2, 8]: 0.8 | fold induction at 50 µM (E. coli; [9]): 1.8

CCC[C@H](N[C@@H](C)C(=O)N1[C@H](C(=O)O)C[C@@H]2CCCC[C@@H]21)C(=O)OCC [Perindopril]
fold induction at 50 µM (K. pneumoniae; planktonic K. pneumoniae, positive cutoff 3-fold increase, read-out: AK-based Prestwick library screening result, K. pneumoniae (fold increase in extracellular AK activity)): 1.1 | fold induction at 50 µM ([1]; planktonic A. baumannii, positive cutoff 3-fold increase, read-out: AK-based Prestwick library screening result, A. baumannii (fold increase in extracellular AK activity)): 1.4 | fold induction at 50 µM (E. faecium; planktonic E. faecium, positive cutoff 3-fold increase, read-out: AK-based Prestwick library screening result, E. faecium (fold increase in extracellular AK activity)): 1 | fold induction at 50 µM (E. cloacae; planktonic E. cloacae, positive cutoff 3-fold increase, read-out: AK-based Prestwick library screening result, E. cloacae (fold increase in extracellular AK activity)): 1.3 | fold induction at 50 µM (P. aeruginosa; planktonic P. aeruginosa, positive cutoff 3-fold increase, read-out: AK-based Prestwick library screening result, P. aeruginosa (fold increase in extracellular AK activity)): 1.2 | fold induction at 50 µM ([2]; planktonic S. aureus, positive cutoff 3-fold increase, read-out: AK-based Prestwick library screening result, S. aureus (fold increase in extracellular AK activity)): 1.1 | fold induction at 50 µM (E. coli; planktonic E. coli, positive cutoff 3-fold increase, read-out: AK-based Prestwick library screening result, E. coli (fold increase in extracellular AK activity)): 1.2

OCCN1CCN(CCCN2c3ccccc3Sc3ccc(Cl)cc32)CC1 [Perphenazine]
fold induction at 50 µM (K. pneumoniae; [10]): 1.3 | fold induction at 50 µM [1, 11]: 1.6 | fold induction at 50 µM (E. faecium; [12]): 1.2 | fold induction at 50 µM (E. cloacae; [13]): 1.4 | fold induction at 50 µM (P. aeruginosa; [14]): 1.1 | fold induction at 50 µM [2, 15]: 0.9 | fold induction at 50 µM (E. coli; [16]): 1.5

CCOc1ccc(NC(C)=O)cc1 [Phenacetin]
fold induction at 50 µM (K. pneumoniae; [17]): 0.9 | fold induction at 50 µM [1, 18]: 1.1 | fold induction at 50 µM (E. faecium; [19]): 0.9 | fold induction at 50 µM (E. cloacae; [20]): 1.4 | fold induction at 50 µM (P. aeruginosa; [21]): 0.9 | fold induction at 50 µM [2, 22]: 0.8 | fold induction at 50 µM (E. coli; [23]): 1.2

Nc1ccc(/N=N/c2ccccc2)c(N)n1 [Phenazopyridine hydrochloride]
fold induction at 50 µM (K. pneumoniae; planktonic, cutoff for positive-scoring molecules 3-fold increase, read-out: AK-based Prestwick Library Screening Results, K. pneumoniae (fold increase in extracellular AK activity)): 0.1 | fold induction at 50 µM ([1]; planktonic, cutoff for positive-scoring molecules 3-fold increase, read-out: AK-based Prestwick Library Screening Results, A. baumannii (fold increase in extracellular AK activity)): 0.1 | fold induction at 50 µM (E. faecium; planktonic, cutoff for positive-scoring molecules 3-fold increase, read-out: AK-based Prestwick Library Screening Results, E. faecium (fold increase in extracellular AK activity)): 0.1 | fold induction at 50 µM (E. cloacae; planktonic, cutoff for positive-scoring molecules 3-fold increase, read-out: AK-based Prestwick Library Screening Results, E. cloacae (fold increase in extracellular AK activity)): 1.4 | fold induction at 50 µM (P. aeruginosa; planktonic, cutoff for positive-scoring molecules 3-fold increase, read-out: AK-based Prestwick Library Screening Results, P. aeruginosa (fold increase in extracellular AK activity)): 0.1 | fold induction at 50 µM ([2]; planktonic, cutoff for positive-scoring molecules 3-fold increase, read-out: AK-based Prestwick Library Screening Results, S. aureus (fold increase in extracellular AK activity)): 0.3 | fold induction at 50 µM (E. coli; planktonic, cutoff for positive-scoring molecules 3-fold increase, read-out: AK-based Prestwick Library Screening Results, E. coli (fold increase in extracellular AK activity)): 0.1

NNCCc1ccccc1 [Phenelzine sulfate]
fold induction at 50 µM (K. pneumoniae; [10]): 0.6 | fold induction at 50 µM [1, 11]: 0.5 | fold induction at 50 µM (E. faecium; [12]): 0.8 | fold induction at 50 µM (E. cloacae; [13]): 0.5 | fold induction at 50 µM (P. aeruginosa; [14]): 0.5 | fold induction at 50 µM [2, 15]: 0.5 | fold induction at 50 µM (E. coli; [16]): 0.5

CC(Oc1ccccc1)C(=O)N[C@@H]1C(=O)N2[C@@H]1SC(C)(C)[C@@H]2C(=O)O (some centres unmarked) [Phenethicillin potassium salt]
fold induction at 50 µM (K. pneumoniae; [17]): 0.5 | fold induction at 50 µM [1, 18]: 0.8 | fold induction at 50 µM (E. faecium; [19]): 1 | fold induction at 50 µM (E. cloacae; [20]): 0.3 | fold induction at 50 µM (P. aeruginosa; [21]): 0.4 | fold induction at 50 µM [2, 22]: 0.6 | fold induction at 50 µM (E. coli; [23]): 0.5

[H]/N=C(/N)N/C(=N/[H])NCCc1ccccc1 [Phenformin hydrochloride]
fold induction at 50 µM (K. pneumoniae; [10]): 0.6 | fold induction at 50 µM [1, 11]: 0.8 | fold induction at 50 µM (E. faecium; [12]): 1 | fold induction at 50 µM (E. cloacae; [13]): 0.8 | fold induction at 50 µM (P. aeruginosa; [14]): 0.7 | fold induction at 50 µM [2, 15]: 0.7 | fold induction at 50 µM (E. coli; [16]): 0.8

O=C1c2ccccc2C(=O)C1c1ccccc1 [Phenindione]
fold induction at 50 µM (K. pneumoniae; [17]): 1.1 | fold induction at 50 µM [1, 18]: 1.1 | fold induction at 50 µM (E. faecium; [19]): 0.9 | fold induction at 50 µM (E. cloacae; [20]): 1.3 | fold induction at 50 µM (P. aeruginosa; [21]): 0.9 | fold induction at 50 µM [2, 22]: 1.1 | fold induction at 50 µM (E. coli; [23]): 1.2

CN(C)CCC(c1ccccc1)c1ccccn1 (centres unmarked) [Pheniramine maleate]
fold induction at 50 µM (K. pneumoniae; [3]): 1 | fold induction at 50 µM [1, 4]: 1 | fold induction at 50 µM (E. faecium; [5]): 1 | fold induction at 50 µM (E. cloacae; [6]): 1.7 | fold induction at 50 µM (P. aeruginosa; [7]): 1 | fold induction at 50 µM [2, 8]: 1 | fold induction at 50 µM (E. coli; [9]): 1.4

CC(COc1ccccc1)N(CCCl)Cc1ccccc1 (centres unmarked) [Phenoxybenzamine hydrochloride]
fold induction at 50 µM (K. pneumoniae; […], read-out: AK-based Prestwick Library Screening Results, K. pneumoniae (fold increase in extracellular AK activity)): 1.2 | fold induction at 50 µM ([1]; […], read-out: AK-based Prestwick Library Screening Results, A. baumannii (fold increase in extracellular AK activity)): 1.3 | fold induction at 50 µM (E. faecium; […], read-out: AK-based Prestwick Library Screening Results, E. faecium (fold increase in extracellular AK activity)): 0.9 | fold induction at 50 µM (E. cloacae; […], read-out: AK-based Prestwick Library Screening Results, E. cloacae (fold increase in extracellular AK activity)): 1.4 | fold induction at 50 µM (P. aeruginosa; […], read-out: AK-based Prestwick Library Screening Results, P. aeruginosa (fold increase in extracellular AK activity)): 1.1 | fold induction at 50 µM ([2]; […], read-out: AK-based Prestwick Library Screening Results, S. aureus (fold increase in extracellular AK activity)): 1.1 | fold induction at 50 µM (E. coli; […], read-out: AK-based Prestwick Library Screening Results, E. coli (fold increase in extracellular AK activity)): 1.4
